Literature values in patent publication US20240122227A1, “AEROSOLIZABLE MATERIAL” (Nicoventures Trading Limited, priority 2019, published 2024).

Target: CB2 receptor compared to the CB1 receptor (Homo sapiens, UniProt P34972)
Settings: see Br J Pharmacol. 2001 October; 134(4): 845-852

Chain of CB2 receptor compared to the CB1 receptor (P34972 whole entry): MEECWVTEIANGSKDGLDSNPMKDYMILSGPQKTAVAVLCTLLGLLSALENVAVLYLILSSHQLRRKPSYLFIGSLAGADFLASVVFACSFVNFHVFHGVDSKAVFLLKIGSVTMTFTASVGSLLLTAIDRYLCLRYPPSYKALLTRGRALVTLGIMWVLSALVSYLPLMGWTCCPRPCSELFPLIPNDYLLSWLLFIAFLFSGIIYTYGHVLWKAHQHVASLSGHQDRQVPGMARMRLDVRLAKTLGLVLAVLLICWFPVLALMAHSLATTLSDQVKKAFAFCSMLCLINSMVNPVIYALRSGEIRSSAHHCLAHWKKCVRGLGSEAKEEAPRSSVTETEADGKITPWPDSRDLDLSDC

| SMILES | selectivity for the CB2 receptor compared to the CB1 receptor |
| --- | --- |
| C=C(C)[C@@H]1CCC(C)=C[C@H]1c1c(O)cc(CCCCC)cc1O [(−)-cannabidiol] | does not show any selectivity between the two receptors |
| C=C(C)[C@H]1CCC(C)=C[C@@H]1c1c(O)cc(CCCCC)cc1O [(+)-cannabidiol] | increased selectivity for the CB2 receptor compared to the CB1 receptor |
